Data set [1] in a line: MTT cytotoxicity assay, MCF-10A control cells. Type of data set: cell-based, human. The note with it: human, read-out: Cytostatic activity (% viable cells). As to the method:
(§1) All tested compounds were dissolved in DMSO at 25 mM initial concentration and diluted with medium to obtain the working concentrations (0.01 nM–250 µM). Serial drug dilutions were prepared in medium immediately before each experiment. The DMSO working concentration in the medium was […]. For the MTT assay, cells were seeded into 96-well microtitre plates at a density of 1 × 10^4 in 100 µL complete medium per well. They were further incubated for 24 h, followed by treatment with CA-4 analogs up to 72 h. Cell viability was determined using the MTT assay. Ten µL of MTT solution (5 mg/mL) was added to each well and further incubated for 3 h at 37 °C. To dissolve the formazan product, 100 µL/well of 99.5% isopropanol was added. Cell viability was determined by measuring absorbance at 550/630 nm using a DTX880 plate reader (Beckman Coulter, USA). Results, expressed as concentrations that inhibit 20% (IC20), 50% (IC50), and 80% (IC80) of cell growth, were calculated using GraphPad Prism 8.0.1.
(§2) Table S 3.1. Description of eukaryotic cell lines used for MTT assay.
(§3) Panel Cell line Origin Tissue, characteristics Source Culture conditions […]
(§4) (h) lung carcinoma ATCC, CCL-185 U/mL penicillin, 100 […]
(§5) lung, bronchus; insulin, rhEGF, GA-BEAS-2B h epithelial virus ATCC, CRL- 1000, BPE, transformed 9609 transferrin,
(§6) HT-29 h colon, colorectal Radostina adenocarcinoma Alexandrova 3.1 g/L D-Glucose […]
(Formazan colour is commonly taken as a measure of viable cells.)

The subject of data set [2] is MCF-10A cells. As to the kind of experiment: MTT cytotoxicity assay, MCF-10A control cells. The note with it: Homo sapiens, 72 h. Type of data set: cell-based, human. As to the method: as §1, §2, §3, §4, §5, §6
The test system of data set [3] is Colon-26 cells. As to the kind of experiment: MTT cytotoxicity assay, Colon-26. The note with it: Mus musculus, 72 h. It counts as cell-based. The method, then: as §1, §2, §3, §4, §5, §6

This note sets out measurements from paper PMC8703450, “New Heterocyclic Combretastatin A-4 Analogs: Synthesis and Biological Activity of Styryl-2(3H)-benzothiazolones” (Pharmaceuticals, 2021).

Broadly, the IC50 is the midpoint of a concentration-inhibition curve. A lower IC50 goes with inhibition by little substance.

Each structure is given as a SMILES string.

Turning to `COc1cc(/C=C\c2ccc3c(c2)sc(=O)n3C)cc(OC)c1OC` [Compound 26Z, (Z)-3-methyl-6-(3,4,5-trimethoxystyryl)-2(3H)-benzothiazolone], in data set [1], the viability at 72 h is 65%. For `COc1ccc(/C=C\c2cc(OC)c(OC)c(OC)c2)cc1O` [CA-4, Combretastatin A-4], the values for the IC50 in data set [2] and in data set [3] were 1.64 ± 0.34 µM and 0.66 ± 0.082 µM, respectively.
